Experimental data taken from PMC10098121, “Amphipathic barbiturates as marine product mimics with cytolytic and immunogenic effects on head and neck squamous cell carcinoma cell lines” (Frontiers in Pharmacology, 2023).

How the values were obtained:
[1] = test system: UT-SCC-24B; assay: High throughput drug screening (CellTiter-Glo, DSS); assay type: cell-based, human; settings: for drug sensitivity score (DSS): 72 h, 10-100,000 nM, myogel, non-irradiated; for delta DSS (ΔDSS): DSS irradiated (2 Gy) minus DSS non-irradiated, >5 synergy, <–5 antagonism
Procedure: (§1) The MPMs were screened against a panel of […] different cell lines (HSC-3, UT-SCC-8, UT-SCC-24A, UT-SCC-24B, UT-SCC-42A, UT-SCC-42B and NOF) at the High Throughput Biomedicine Unit (HTB) at the Institute for Molecular Medicine Finland (FIMM). On day 1, black-walled 384-well plates were coated with 5 µl diluted myogel (0.5 mg/ml) per well using an automated reagent dispenser (MultiFlo FX, BioTek, Winooski, VT, United States). On day 2, 500 cells per well were seeded in 20 µl of complete media using the MultiFlo FX (BioTek), and the cells were left to adhere overnight. On day 3, the MPMs, cisplatin, DMSO and Benzethonium chloride were added to the cells using an automatic liquid handler (Echo 550, Labcyte Inc., San Jose, CA, United States). Cisplatin and the MPMs were added to yield five different concentrations in a ten-fold dilution series ranging from 10 to 100,000 nM. Each concentration was tested in triplicate wells. DMSO (0.1%) and benzethonium chloride (100 µM) served as negative and positive control, respectively. Three hours later, some of the plates were irradiated with 2 Gy in a gamma irradiator (OB29/4, STS, Braunschweig, Germany). All plates were taken to the irradiation room to ensure similar handling of the plates. 72 h later, the plates were cooled to room temperature before 25 µl of CellTiter-Glo 2.0 reagent (Promega, Madison, WI, USA) was added to each well using the MultiFlo FX (BioTek). Next, the plates were centrifuged for 5 min at 1,000 rpm before the luminescence signal was measured with the PHERAstar FS HT reader (BMG LABTECH GmbH, Ortenberg, Germany). The raw data was analyzed with the Breeze software (https://breeze.fmm.fi), which normalized the luminescence signal from treated cells against the signal from negative and positive control cells to calculate the percentage of inhibition and generate dose-response curves, which were then used to calculate drug sensitivity scores (DSS). The DSS is a parameter which combines the IC50, the slope of the dose-response curve, and the minimum and maximum responses into a single metric, as previously described ([Yadav et al., 2014]). Quality control was performed by calculation of the Z′-factor, which was >0.7 for all cell lines, indicating high quality of the assay ([Zhang et al., 1999]).

[2] = test system: HSC-3; assay: as above; assay type: cell-based, human; settings: for drug sensitivity score (DSS): HSC-3, 72 h, 10-100,000 nM, myogel, non-irradiated; for delta DSS (ΔDSS): HSC-3, DSS irradiated (2 Gy) minus DSS non-irradiated, >5 synergy, <–5 antagonism
Procedure: as §1

[3] = test system: UT-SCC-8; assay: as above; assay type: cell-based, human; settings: for drug sensitivity score (DSS): UT-SCC-8, 72 h, 10-100,000 nM, myogel, non-irradiated; for delta DSS (ΔDSS): UT-SCC-8, DSS irradiated (2 Gy) minus DSS non-irradiated, >5 synergy, <–5 antagonism
Procedure: as §1

[4] = test system: UT-SCC-42A; assay: as above; assay type: cell-based, human; settings: for drug sensitivity score (DSS): 72 h, 10-100,000 nM, myogel, non-irradiated; for delta DSS (ΔDSS): DSS irradiated (2 Gy) minus DSS non-irradiated, >5 synergy, <–5 antagonism
Procedure: as §1

[5] = test system: Staphylococcus aureus ATCC 9144; assay: Bacterial minimum inhibitory concentration (broth microdilution); assay type: cell-based; settings: ATCC9144; Staphylococcus aureus ATCC 9144, 48 h, 35 °C, di-TFA salts
Procedure: (§2) Method for determination of bacterial minimum inhibitory concentration (MIC) Stock solutions of the water-soluble compounds were prepared by dissolving them in ultrapure water (Milli-Q H2O, Millipore, MA, USA). The less water-soluble compounds were first dissolved in 25 - 50 µL 100% DMSO before further dilution with ultrapure water. The DMSO concentration was always less than 1% in the working concentration of each compound. A modified broth microdilution susceptibility test based on the CLSI M07-A9 protocol, [2] was used to determine minimal inhibitory concentrations (MIC). Briefly, the test compounds were two-fold diluted with ultrapure water in polystyrene 96-well flat-bottom microplates (NUNC, Roskilde, Denmark). The bacterial inoculum was diluted to 2.5 - 3 x 10^4 cells/mL in Mueller-Hinton broth (MHB, Difco Laboratories, USA) and added to the different diluted compounds in a ratio of 1:1. Positive control (ciprofloxacin, Sigma-Aldrich, USA), negative control (bacteria + water), and media control (media + water) were included in each experiment. The microplates were incubated for 48 h at 35 °C in an EnVision microplate reader (PerkinElmer, Waltham, MA, USA). The lowest concentration of compounds that caused no bacterial growth, as determined by optical density (OD600) measurements, was defined as the MIC value. All compounds were tested in 3 technical replicates.
(§3) Supplementary Video S1. HSC-3 cells were seeded at 100% confluence and a standard scratch wound migration assay was performed. The cells were imaged every 2 hours for 24 hours. The video

[6] = test system: Pseudomonas aeruginosa ATCC 27853; assay: as above; assay type: cell-based; settings: ATCC27853; Pseudomonas aeruginosa ATCC 27853, 48 h, 35 °C, di-TFA salts
Procedure: as §2, §3

[7] = test system: Bacillus subtilis 168; assay: as above; assay type: cell-based; settings: Bacillus subtilis 168, 48 h, 35 °C, di-TFA salts
Procedure: as §2, §3

[8] = test system: Escherichia coli ATCC 25922; assay: as above; assay type: cell-based; settings: ATCC25922; Escherichia coli ATCC 25922, 48 h, 35 °C, di-TFA salts
Procedure: as §2, §3

[9] = test system: human red blood cells; assay: Hemolysis assay; assay type: cell-based; settings: for EC50: Homo sapiens, Erythrocyte, 1 h, 37°C, highest concentration tested 500 μM, average of three experiments, read-out: EC50 hemolytic activity against human red blood cells
Procedure: The hemolytic effect of the MPMs was determined using a hemolysis assay as previously described ([Paulsen et al., 2021]). Briefly, hemolysis was determined using a heparinized fraction (10 IU/mL) of freshly drawn blood. The blood collected in ethylenediaminetetraacetic acid-containing test tubes (Vacutest, KIMA, Arzergrande, Italy) was used for the determination of the hematocrit (hct). The heparinized blood was washed 3 × with pre-warmed phosphate-buffered saline (PBS) and adjusted to a final hct of 4%. MPMs in DMSO (50 mM) were added to a 96-well polypropylene V-bottom plate (NUNC, Fisher Scientific, Oslo, Norway) and serially diluted. The test concentration range was 4–500 μM with DMSO contents ≤1%. A solution of 1% triton X-100 was used as a positive control for 100% hemolysis. As a negative control, a solution of 1% DMSO in PBS was included. Red blood cells (1% v/v final concentration) were added to the well plate and incubated at 37°C and 800 rpm for 1 h. After centrifugation (5 min, 3000 g), 100 μL from each well was transferred to a 96-well flat-bottomed microtiter plate, and absorbance was measured at 545 nm with a microplate reader (VersaMaxTM, Molecular Devices, Sunnyvale, CA, United States). The percentage of hemolysis was calculated as the ratio of the absorbance in the MPM treated and surfactant-treated samples, corrected for the PBS background. Three independent experiments were performed, and EC50 values are presented as averages.

Structure (SMILES): N.N.[Cl][Pt][Cl] [Cisplatin, cisplatin, reference compound]
- drug sensitivity score (DSS) [1]: 11,6
- delta DSS (ΔDSS) [1]: 0,7
- drug sensitivity score (DSS) [2]: 15,6
- delta DSS (ΔDSS) [2]: -0,8
- drug sensitivity score (DSS) [3]: 16,8
- delta DSS (ΔDSS) [3]: -0,8
- drug sensitivity score (DSS) [4]: 7,1
- delta DSS (ΔDSS) [4]: -0,1

Structure (SMILES): NCCN1C(=O)N(CCN)C(=O)C(CCCc2ccccc2)(CCCc2ccccc2)C1=O [MPM-2:0]
- drug sensitivity score (DSS) [1]: 18,3
- delta DSS (ΔDSS) [1]: -0,1
- drug sensitivity score (DSS) [2]: 19
- delta DSS (ΔDSS) [2]: -0,7
- drug sensitivity score (DSS) [3]: 19,2
- delta DSS (ΔDSS) [3]: 0,6
- drug sensitivity score (DSS) [4]: 19
- delta DSS (ΔDSS) [4]: -0,7
- MIC [5]: 8 µg/mL
- MIC [6]: 16 µg/mL
- MIC [7]: 8 µg/mL
- MIC [8]: 16 µg/mL
- EC50 [9]: 379 µM

Structure (SMILES): CN(C)CCCN1C(=O)N(CCCN(C)C)C(=O)C(CCCc2ccccc2)(CCCc2ccccc2)C1=O [MPM-3:2]
- drug sensitivity score (DSS) [1]: 18,4
- delta DSS (ΔDSS) [1]: 0,1
- drug sensitivity score (DSS) [2]: 17,9
- delta DSS (ΔDSS) [2]: -0,2
- drug sensitivity score (DSS) [3]: 17,8
- delta DSS (ΔDSS) [3]: 0,1
- drug sensitivity score (DSS) [4]: 16
- delta DSS (ΔDSS) [4]: 0,6
- MIC [5]: > 64 µg/mL
- MIC [6]: > 64 µg/mL
- MIC [7]: 16 µg/mL
- MIC [8]: 32 µg/mL
- EC50 [9]: > 500 µM

Structure (SMILES): CN(C)CCCCN1C(=O)N(CCCCN(C)C)C(=O)C(CCCc2ccccc2)(CCCc2ccccc2)C1=O [MPM-4:2]
- drug sensitivity score (DSS) [1]: 18,9
- delta DSS (ΔDSS) [1]: -0,5
- drug sensitivity score (DSS) [2]: 18,2
- delta DSS (ΔDSS) [2]: 0,3
- drug sensitivity score (DSS) [3]: 18,1
- delta DSS (ΔDSS) [3]: 0,5
- drug sensitivity score (DSS) [4]: 17
- delta DSS (ΔDSS) [4]: 0,4
- MIC [5]: 64 µg/mL
- MIC [6]: > 64 µg/mL
- MIC [7]: 16 µg/mL
- MIC [8]: 32 µg/mL
- EC50 [9]: > 500 µM

Structure (SMILES): NCCCCCCN1C(=O)N(CCCCCCN)C(=O)C(CCCc2ccccc2)(CCCc2ccccc2)C1=O [MPM-6:0]
- drug sensitivity score (DSS) [1]: 18,3
- delta DSS (ΔDSS) [1]: 0,1
- drug sensitivity score (DSS) [2]: 17,8
- delta DSS (ΔDSS) [2]: 0,7
- drug sensitivity score (DSS) [3]: 19,5
- delta DSS (ΔDSS) [3]: -0,8
- drug sensitivity score (DSS) [4]: 17,9
- delta DSS (ΔDSS) [4]: 0,3
- MIC [5]: 4 µg/mL
- MIC [6]: 8 µg/mL
- MIC [7]: 2 µg/mL
- MIC [8]: 8 µg/mL
- EC50 [9]: 92 µM
- hemolytic activity against red blood cells (in words) ([9]; test range 4–500 μM): the most hemolytic compound
